From BigSolDB 2.1

CCOC(=O)c1ccc(N)cc1
solubility (mole fraction)
Settings | in cyclohexane | in isopropyl myristate | in n-octanol | in water
298.15 K | 0.00107 | 0.0637 | 0.0628 | 0.000105
303.15 K | 0.00134 | 0.0764 | 0.0753 | 0.000126
308.15 K | 0.00185 | 0.102 | 0.0916 | 0.000159
313.15 K | 0.00225 | 0.121 | 0.113 | 0.000186
